What was measured:
Tyk2 = biological target: T1, Tyk2 (Homo sapiens, UniProt P29597); experiment: Tyk2 HTRF Assay; assay type: biochemical
T1 construct: 450 ng/ml TYK2 KD (Cama Biosciences 08-147 Lot 06CBS-3022D); purchased Cama Biosciences (so in the source)
T1 sequence (P29597 897-1176 limits assumed): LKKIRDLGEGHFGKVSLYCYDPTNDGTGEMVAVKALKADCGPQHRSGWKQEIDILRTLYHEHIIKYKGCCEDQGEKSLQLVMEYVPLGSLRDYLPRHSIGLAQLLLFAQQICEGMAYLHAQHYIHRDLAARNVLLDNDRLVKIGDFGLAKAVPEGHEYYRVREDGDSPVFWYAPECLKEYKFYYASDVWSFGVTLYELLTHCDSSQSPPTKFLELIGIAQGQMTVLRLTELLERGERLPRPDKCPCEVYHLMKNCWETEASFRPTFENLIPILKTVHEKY
Experimental: The following is an example of an assay that can be used to determine the Tyk2 inhibitory activity of a test compound.
25 μl/well DMSO is added to Columns 2 and 14 (except 28.5 μl is added to well P14 of Greiner 384-well polypropylene plate). 20 μl/well DMSO is added to all remaining wells.
5 mM compound solutions are added by addition of 5 μl of 30 mM compound to 25 μl DMSO in Columns 2 and 14 of plate. 1.5 mM reference control is prepared by addition of 1.5 μl of 30 mM JAK3 Inhibitor VI to 28.5 μl DMSO in Well P14.
(§1) Serial dilution is then performed by the following steps: (i) Compounds in Column 2 are mixed by pipetting 20 μl up and down 6X; (ii) 10 μl/well compounds in DMSO are transferred from one column to the next column for Columns 2-11; (iii) wells are mixed by pipetting 20 μl up and down 6×; (iv) tips are washed 3×25 μl DMSO, 2×25 μl next DMSO; (v) steps i-iv repeated for Columns 14-23.
(§2) The following buffers are prepared:
Assay Buffer: 50 mM HEPES pH 7.6; 1 mM DTT; 10 mM MgCl2; 0.01% Triton X100; 0.01% BSA; and 0.1 mM EDTA.
Kinase in Assay Buffer: 450 ng/ml TYK2 KD (Cama Biosciences 08-147 Lot 06CBS-3022D).
Substrate/Detection Mixture (1×ATP) in Assay Buffer: 188 nM DyLight 647-Streptavidin (Pierce 21824); 5 μM Biotin-EQEDEPEGDYFEWLE (Lyn Substrate Peptide); 750 ng/ml Eu-anti-phospho-Tyrosine (PerkinElmer AD0069); 62.5 μM ATP; 80 nM Substrate Peptide (American Peptide Company 332722).
Substrate/Detection Mixture (20×ATP) in Assay Buffer: 188 nM DyLight 647-Streptavidin; 5 μM Biotin-EQEDEPEGDYFEWLE; 750 ng/ml Eu-anti-phospho-Tyrosine; 1250 μM ATP; 80 nM Substrate Peptide.
14.5 μl/well Enzyme Mix or Dilution Buffer (Background Controls) is added to Costar 384 well black plates.
(§3) Compound addition and mixture is performed by the following steps: (i) 0.5 μl/well DMSO/compounds in DMSO is transferred from Greiner 384-well polypropylene plate to a plate containing 14.5 μl/well Enzyme Mix and Dilution Buffer; (ii) mixed by pipetting 10 μl up and down 4×; (iii) tips are washed 4×10 μl in DMSO, 2×20 μl in other DMSO; (iv) steps i-iii are repeated until all plates are completed.
10 μl/well Substrate/Detection Mixtures is added and incubated at room temperature 2 hours (on shaker for first 2+ minutes).
10 μl/well 50 mM EDTA/0.01% Triton X100 is added and incubated >15 minutes at room temperature (on shaker for first 2+ minutes).
Plates are read at 665 nm and 620 nm emission on Analyst GT protocol HTRF_SP_A (Counts= 665/620×10000).

mTOR = mTOR (Homo sapiens, UniProt P42345); experiment: mTOR HTR-FRET Assay; assay type: biochemical
Method in brief: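 TOR enzyme fraction preincubated 30 min at room temperature with compound, then reaction started with GST-p70S6 kinase fragment substrate (97 nM working stock) plus ATP/Mn2+ and run 2 h at room temperature in Tris pH 7.4 buffer. Stopped with EDTA; phospho-substrate detected by HTRF antibody reagent after 5 h to overnight.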

Syk = biological target: T2, Syk (Homo sapiens, UniProt P43405); experiment: Syk HTRF Assay; assay type: biochemical
T2 construct: purchased Cama Biosciences (so in the source)
Experimental: 5 μl/well DMSO is added to Column 2 Wells A-0 and 29.5 μl to well P2 of Greiner 384-well polypropylene plate. 20 μl/well DMSO is added to Columns 1 and 3-12.
25 mM compound solutions are prepared by the addition of 25 μl of 30 mM compound to Column 2 and 0.5 μl 30 mM reference control to well P2.
as §1, with “compounds” for “Compounds”, “6×;” for “6X;”, “tips” for “tips are”, “DMSO.” for “DMSO; (v) steps i-iv repeated for Columns 14-23.”
as §2
Dilution Buffer: 50 mM HEPES pH 7.6; 1 mM DTT; 10 mM MgCl2; 0.01% Triton X100; 0.01% BSA; 0.1 mM EDTA.
Enzyme Mix in Dilution Buffer: 8.621 ng/ml Syk (Cama Biosciences 08-176).
Start Mix in Dilution Buffer: 87.5 μM ATP; 80 nM Substrate Peptide (American Peptide Company 332722).
14.5 μl/well Enzyme Mix or Dilution Buffer (Background Controls) is added to Costar 384-well black plates.
as §3, with “DMSO” for “DMSO is”, “to left half of assay” for “to a”, “(ii) Mix” for “(ii) mixed”, “repeated with transfer to right half of assay plate; (v) steps i-iv are repeated with each compound/assay plate” for “repeated”
10 μl/well Start Mix is added and incubated at room temperature on shaker for 2 minutes (1 hour total reaction time).
Stop Solution in Dilution Buffer: 120 mM EDTA
Antibody Mix in Dilution Buffer: 4.86 μg/ml DyLight 647 Streptavidin (Pierce 21824); 1 μg/ml Lance Eu-Anti-Phosphotyrosine (PerkinElmer AD0069).
5 μl/well[…] is added and incubated at room temperature on shaker for 2 minutes.
[…] Antibody Mix is added and Incubated at room temperature on shaker for 2 minutes (4 hours to overnight total time).
Plates are read at 665 nm and 620 nm emission on Analyst GT protocol HTRF_SP_A or EnVision protocol Steve's TR-FRET.

IC50 (Tyk2)	IC50 (mTOR)	melting point	IC50 (Syk)	Structure (SMILES)
0.1 to 5 µM	0.1 to 5 µM	> 300 °C		COc1ccccc1-n1c(=O)[nH]c2c(C(N)=O)nc(-c3cccc(O)c3F)nc21 [Compound 77, 2-(2-Fluoro-3-hydroxyphenyl)-9-(2-methoxyphenyl)-8-oxo-7-hydropurine-6-carbox-amide]
10.1 to 20 µM	0.1 to 5 µM	366 to 368 °C		NC(=O)c1nc(-c2cccc(O)c2)nc2c1[nH]c(=O)n2[C@H]1CC[C@H](O)CC1 [Compound 47, 9-(trans-4-Hydroxycyclohexyl)-2-(3-hydroxyphenyl)-8-oxo-8,9-dihydro-7H-purine-6-carboxamide]
	0.1 to 5 µM	278 °C	10.1 to 20 µM	NC(=O)c1nc(-c2ccc3nc[nH]c3c2)nc2c1[nH]c(=O)n2-c1ccccc1F [Compound 101, 2-(1H-benzo[d]imidazol-6-yl)-9-(2-fluorophenyl)-8-oxo-8,9-dihydro-7H-purine-6-carboxamide]
0.1 to 5 µM	0.1 to 5 µM	290 to 292 °C		NC(=O)c1nc(-c2cccc(O)c2)nc2c1[nH]c(=O)n2-c1c(Cl)cccc1Cl [Compound 69, 9-(2,6-Dichlorophenyl)-2-(3-hydroxyphenyl)-8-oxo-7-hydropurine-6-carboxamide]
	0.1 to 5 µM	331 to 334 °C	0.1 to 5 µM	COc1ccccc1-n1c(=O)[nH]c2c(C(N)=O)nc(-c3cccc(O)c3Cl)nc21 [Compound 54, 2-(2-Chloro-3-hydroxyphenyl)-9-(2-methoxyphenyl)-8-oxo-7-hydropurine-6-carbox amide]
		284 to 285 °C	> 30 µM	COc1ccccc1-n1c(=O)[nH]c2c(C(N)=O)nc(-c3cccc(N)c3)nc21 [Compound 38, 2-(3-aminophenyl)-9-(2-methoxyphenyl)-8-oxo-8,9-dihydro-7H-purine-6-carboxamide]
> 30 µM	> 30 µM	339 °C		CNC(=O)c1nc(-c2cccc(O)c2)nc2c1[nH]c(=O)n2-c1ccccc1OC [Compound 42, [2-(3-Hydroxyphenyl)-9-(2-methoxyphenyl)-8-oxo(7-hydropurin-6-yl)]-N-methylcarbox-amide]

Source: patent US7968556B2, “Heteroaryl compounds, compositions thereof, and methods of treatment therewith” (Signal Pharmaceuticals, LLC, priority 2006, dated 2011)
